Values of other authors, collected in patent US12673067B2, “Methods, agents, and devices for local neuromodulation of autonomic nerves” (Tulavi Therapeutics, Inc., priority 2016, dated 2026).
Like-named read-outs stand apart in the source and are kept apart here. One block for each compound: values may come before it.

How the values were obtained:
FFA1 [1] = target: T1, FFA1 (Homo sapiens, UniProt O14842); details: Ca2+ mobilization, fluorescent indicator
GPR120 = target: T2, GPR120 (Homo sapiens, UniProt Q5NUL3); details: Ca2+ mobilization, fluorescent indicator
T2 sequence (Q5NUL3 1-361): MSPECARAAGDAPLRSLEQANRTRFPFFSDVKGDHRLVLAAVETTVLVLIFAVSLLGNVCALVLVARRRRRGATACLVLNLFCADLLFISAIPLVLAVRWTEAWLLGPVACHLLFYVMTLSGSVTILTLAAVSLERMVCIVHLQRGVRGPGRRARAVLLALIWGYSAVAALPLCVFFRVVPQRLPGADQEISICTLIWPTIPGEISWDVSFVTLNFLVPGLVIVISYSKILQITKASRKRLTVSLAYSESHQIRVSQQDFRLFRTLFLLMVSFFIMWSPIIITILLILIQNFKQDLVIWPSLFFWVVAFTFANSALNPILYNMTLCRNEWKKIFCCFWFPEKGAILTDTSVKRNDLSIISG

PPARα = target: T3, PPARα (Homo sapiens, UniProt Q07869)
T3 sequence (Q07869 1-468): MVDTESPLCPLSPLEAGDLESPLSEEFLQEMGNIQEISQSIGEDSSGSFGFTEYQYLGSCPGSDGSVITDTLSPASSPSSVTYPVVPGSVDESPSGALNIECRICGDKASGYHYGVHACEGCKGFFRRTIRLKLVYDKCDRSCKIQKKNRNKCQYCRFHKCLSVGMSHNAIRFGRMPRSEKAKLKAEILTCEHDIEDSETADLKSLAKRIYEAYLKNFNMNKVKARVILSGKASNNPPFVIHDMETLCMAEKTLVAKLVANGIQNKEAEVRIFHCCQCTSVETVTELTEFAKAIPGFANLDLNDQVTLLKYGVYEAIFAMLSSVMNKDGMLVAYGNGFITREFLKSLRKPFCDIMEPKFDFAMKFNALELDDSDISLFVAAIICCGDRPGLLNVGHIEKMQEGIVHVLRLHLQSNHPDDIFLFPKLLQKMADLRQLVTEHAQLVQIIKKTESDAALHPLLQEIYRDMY

PPARγ = target: T4, PPARγ (Homo sapiens, UniProt P37231)
T4 sequence (P37231 1-505): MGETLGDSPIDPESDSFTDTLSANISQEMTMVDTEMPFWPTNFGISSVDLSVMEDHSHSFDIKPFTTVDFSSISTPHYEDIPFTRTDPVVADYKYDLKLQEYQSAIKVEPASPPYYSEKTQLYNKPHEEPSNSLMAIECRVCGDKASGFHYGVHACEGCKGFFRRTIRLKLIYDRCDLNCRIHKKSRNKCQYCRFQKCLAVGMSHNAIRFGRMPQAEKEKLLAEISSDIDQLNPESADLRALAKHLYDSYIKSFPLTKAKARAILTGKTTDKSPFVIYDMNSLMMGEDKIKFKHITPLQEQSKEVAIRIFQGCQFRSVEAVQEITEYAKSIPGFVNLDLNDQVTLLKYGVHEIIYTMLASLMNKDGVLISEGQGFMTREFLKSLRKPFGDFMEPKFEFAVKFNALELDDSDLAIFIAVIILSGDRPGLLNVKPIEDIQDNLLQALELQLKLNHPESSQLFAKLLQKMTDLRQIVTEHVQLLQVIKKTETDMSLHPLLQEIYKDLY

PPARδ = target: T5, PPARδ (Homo sapiens, UniProt Q03181)
T5 sequence (Q03181 1-441): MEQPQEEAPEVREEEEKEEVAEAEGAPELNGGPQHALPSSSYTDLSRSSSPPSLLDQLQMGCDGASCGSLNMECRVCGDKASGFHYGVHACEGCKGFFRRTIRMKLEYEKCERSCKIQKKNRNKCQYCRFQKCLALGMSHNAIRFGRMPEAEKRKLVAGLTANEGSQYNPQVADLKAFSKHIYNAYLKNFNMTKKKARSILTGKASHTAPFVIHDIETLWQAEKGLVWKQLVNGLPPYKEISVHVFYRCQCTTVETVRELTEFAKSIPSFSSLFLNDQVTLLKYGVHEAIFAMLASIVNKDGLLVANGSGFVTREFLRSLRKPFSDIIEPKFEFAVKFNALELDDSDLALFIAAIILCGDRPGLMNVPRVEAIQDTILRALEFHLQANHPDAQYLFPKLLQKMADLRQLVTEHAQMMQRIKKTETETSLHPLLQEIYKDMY

FFA1 [2] = target: T1, FFA1; details: footnote a: ERK activation (Smith 2009) or aequorin reporter (Kotarsky 2003)
H+K+ATPase = target: T6, H+K+ATPase (Oryctolagus cuniculus, UniProt P27112); details: microsomal membranes from rabbit fundic mucosa; read-out: IC50, inhibition of isolated H+K+ATPase enzyme activity
T6 construct: a preparation of microsomal membranes from rabbit fundic mucosa; from tissue; host or cells: rabbit fundic mucosa, microsomal membranes

[3] = test system: organic anion transporters (OAT); details: at 0.5-1 mM
Aquaporin 4 (AQP4) = details: pretreatment, mouse focal cerebral ischemia
FFA2 = target: T7, FFA2 (Homo sapiens, UniProt O15552)
T7 sequence (O15552 1-330): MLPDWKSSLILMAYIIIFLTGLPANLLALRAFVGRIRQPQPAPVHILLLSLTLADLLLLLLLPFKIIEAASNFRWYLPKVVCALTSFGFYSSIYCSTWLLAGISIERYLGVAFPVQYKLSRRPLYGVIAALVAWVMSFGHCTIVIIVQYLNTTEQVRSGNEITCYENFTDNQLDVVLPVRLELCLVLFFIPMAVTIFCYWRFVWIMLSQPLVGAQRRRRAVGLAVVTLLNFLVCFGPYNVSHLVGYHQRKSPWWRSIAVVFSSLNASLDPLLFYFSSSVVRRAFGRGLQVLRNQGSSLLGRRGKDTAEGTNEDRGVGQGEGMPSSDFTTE

FFA3 = target: T8, FFA3 (Homo sapiens, UniProt O14843)
T8 sequence (O14843 1-346): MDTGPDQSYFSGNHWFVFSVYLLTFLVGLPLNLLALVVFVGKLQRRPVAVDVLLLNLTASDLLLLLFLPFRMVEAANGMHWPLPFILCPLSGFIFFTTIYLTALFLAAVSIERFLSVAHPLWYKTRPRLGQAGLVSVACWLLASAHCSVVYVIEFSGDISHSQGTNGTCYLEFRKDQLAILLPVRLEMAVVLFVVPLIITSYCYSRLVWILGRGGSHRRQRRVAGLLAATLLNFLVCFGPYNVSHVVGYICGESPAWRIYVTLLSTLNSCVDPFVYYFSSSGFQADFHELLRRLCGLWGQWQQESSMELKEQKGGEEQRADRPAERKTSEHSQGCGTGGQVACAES

FFA1 [4] = target: T1, FFA1; details: footnote b: insulin secretion/DMR assay
KCC2 = target: T9, KCC2 (Homo sapiens, UniProt Q9H2X9)
T9 sequence (Q9H2X9 1-1139): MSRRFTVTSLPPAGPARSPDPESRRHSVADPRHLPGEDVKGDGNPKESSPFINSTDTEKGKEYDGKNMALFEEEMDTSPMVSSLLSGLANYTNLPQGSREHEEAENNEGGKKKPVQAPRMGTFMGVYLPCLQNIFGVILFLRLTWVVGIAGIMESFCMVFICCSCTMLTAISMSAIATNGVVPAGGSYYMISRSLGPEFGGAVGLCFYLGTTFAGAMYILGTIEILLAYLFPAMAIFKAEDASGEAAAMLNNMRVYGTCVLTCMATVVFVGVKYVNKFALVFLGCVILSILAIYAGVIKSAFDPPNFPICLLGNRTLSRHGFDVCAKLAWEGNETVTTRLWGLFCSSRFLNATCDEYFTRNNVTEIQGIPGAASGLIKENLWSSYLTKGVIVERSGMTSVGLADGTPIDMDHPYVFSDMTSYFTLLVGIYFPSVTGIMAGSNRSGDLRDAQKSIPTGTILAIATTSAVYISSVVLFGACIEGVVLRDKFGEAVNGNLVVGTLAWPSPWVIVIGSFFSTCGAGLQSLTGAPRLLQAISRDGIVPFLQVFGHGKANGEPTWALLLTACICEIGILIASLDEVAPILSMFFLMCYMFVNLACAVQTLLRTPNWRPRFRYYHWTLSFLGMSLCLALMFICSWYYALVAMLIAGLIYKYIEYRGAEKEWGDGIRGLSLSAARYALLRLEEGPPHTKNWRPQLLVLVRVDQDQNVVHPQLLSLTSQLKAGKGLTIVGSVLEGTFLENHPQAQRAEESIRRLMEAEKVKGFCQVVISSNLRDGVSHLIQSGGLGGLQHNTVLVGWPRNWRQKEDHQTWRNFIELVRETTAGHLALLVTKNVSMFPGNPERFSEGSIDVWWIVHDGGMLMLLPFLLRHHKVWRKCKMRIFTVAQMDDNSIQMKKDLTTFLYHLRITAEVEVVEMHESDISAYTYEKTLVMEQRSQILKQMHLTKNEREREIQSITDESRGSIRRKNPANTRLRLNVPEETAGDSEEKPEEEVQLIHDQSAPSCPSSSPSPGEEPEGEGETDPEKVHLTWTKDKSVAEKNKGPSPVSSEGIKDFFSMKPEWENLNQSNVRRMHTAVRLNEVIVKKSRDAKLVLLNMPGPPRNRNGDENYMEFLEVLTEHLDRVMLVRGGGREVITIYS

[5] = in vivo
[6] = rats
stellate ganglion = details: dog, in vivo

T1 sequence (O14842 whole entry): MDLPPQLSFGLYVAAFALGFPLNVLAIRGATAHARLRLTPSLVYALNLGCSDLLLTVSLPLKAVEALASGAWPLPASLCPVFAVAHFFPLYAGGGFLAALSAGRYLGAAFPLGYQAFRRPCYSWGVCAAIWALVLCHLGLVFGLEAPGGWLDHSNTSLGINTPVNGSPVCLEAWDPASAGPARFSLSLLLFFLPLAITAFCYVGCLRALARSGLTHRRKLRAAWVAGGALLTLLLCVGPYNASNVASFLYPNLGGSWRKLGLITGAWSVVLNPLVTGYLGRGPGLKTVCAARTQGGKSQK
T6 sequence (P27112 whole entry): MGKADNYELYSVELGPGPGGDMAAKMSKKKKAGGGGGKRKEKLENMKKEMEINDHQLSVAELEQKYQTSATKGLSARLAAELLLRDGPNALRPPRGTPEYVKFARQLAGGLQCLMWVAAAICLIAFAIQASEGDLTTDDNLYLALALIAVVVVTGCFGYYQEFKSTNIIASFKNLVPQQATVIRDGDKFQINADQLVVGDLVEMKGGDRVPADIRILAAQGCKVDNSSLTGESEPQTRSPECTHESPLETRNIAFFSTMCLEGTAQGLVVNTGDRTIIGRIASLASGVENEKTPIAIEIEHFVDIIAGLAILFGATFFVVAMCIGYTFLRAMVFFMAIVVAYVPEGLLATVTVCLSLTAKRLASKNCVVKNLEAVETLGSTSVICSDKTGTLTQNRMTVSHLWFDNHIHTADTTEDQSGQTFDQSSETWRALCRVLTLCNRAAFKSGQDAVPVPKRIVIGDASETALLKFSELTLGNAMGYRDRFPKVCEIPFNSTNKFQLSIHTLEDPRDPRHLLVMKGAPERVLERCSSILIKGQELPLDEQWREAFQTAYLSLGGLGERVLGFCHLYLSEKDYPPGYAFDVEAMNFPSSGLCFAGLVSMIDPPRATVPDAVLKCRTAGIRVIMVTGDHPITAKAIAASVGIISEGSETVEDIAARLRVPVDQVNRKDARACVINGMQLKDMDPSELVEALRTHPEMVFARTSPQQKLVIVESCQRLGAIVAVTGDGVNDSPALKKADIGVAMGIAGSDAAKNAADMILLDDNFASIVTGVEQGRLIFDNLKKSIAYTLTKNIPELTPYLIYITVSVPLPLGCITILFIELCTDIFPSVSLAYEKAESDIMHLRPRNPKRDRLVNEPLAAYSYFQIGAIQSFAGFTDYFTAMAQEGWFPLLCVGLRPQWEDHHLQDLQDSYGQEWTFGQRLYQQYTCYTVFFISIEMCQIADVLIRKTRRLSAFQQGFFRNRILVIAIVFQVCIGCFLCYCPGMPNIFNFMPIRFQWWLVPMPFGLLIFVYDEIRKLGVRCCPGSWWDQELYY
T6 sequence (P18597 whole entry partner): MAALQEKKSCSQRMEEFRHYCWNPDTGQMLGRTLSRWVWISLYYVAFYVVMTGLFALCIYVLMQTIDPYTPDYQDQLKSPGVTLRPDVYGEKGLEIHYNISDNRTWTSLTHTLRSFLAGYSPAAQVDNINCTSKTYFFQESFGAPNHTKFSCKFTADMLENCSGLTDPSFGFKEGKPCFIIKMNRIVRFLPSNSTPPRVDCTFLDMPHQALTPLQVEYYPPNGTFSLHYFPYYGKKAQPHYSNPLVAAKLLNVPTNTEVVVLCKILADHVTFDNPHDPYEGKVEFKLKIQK

affinity of Na/K ATPase pump inhibition (Na/K ATPase): comparable to ouabain
Compound: O=c1c2ccc(O)c(O)c2oc2c(O)c(O)ccc12 [3,4,5,6-Tetrahydroxyxanthone]

Compound: CC/C=C\C/C=C\C/C=C\C/C=C\C/C=C\C/C=C\CCC(=O)O [DHA (C22:6), DHA]
FFA1 pEC50 (FFA1 [1]): 5.4-6.0
GPR120 pEC50 (GPR120): 5.4

pEC50 for PPARα (PPARα): 4.0
pEC50 for PPARγ (PPARγ): 4.9
FFA1 pEC50 (FFA1 [1]): 6.6-7.3
pEC50 for PPARδ (PPARδ): 4.0
Compound: O=C(O)CCc1ccc(NCc2cccc(Oc3ccccc3)c2)cc1 [GW9508]

PPARα agonist activity (PPARα; at 100 μM): Lacks PPARα, δ, and γ
PPARγ agonist activity (PPARγ; at 100 μM): Lacks PPARα, δ, and γ
FFA1 pEC50 (FFA1 [1]): 4.7
GPR120 pEC50 (GPR120): 5.9
PPARδ agonist activity (PPARδ; at 100 μM): Lacks PPARα, δ, and γ
Compound: O=C(O)CCCc1ccc(OCCN(c2ccccc2)c2ccccn2)cc1 [NCG21 (Cpd 12)]

FFA1 pEC50 (FFA1 [1]): 4.4-5.7
Compound: CCCCCCCC/C=C\CCCCCCCC(=O)O [Oleic acid (C18:1), Oleic acid]

FFA1 pEC50 (FFA1 [1]): 5.2-5.3
Compound: CCCCCCCCCCCCCCCC(=O)O [Palmitic acid (C18:0), Palmitic acid]

FFA1 pEC50 (FFA1 [2]): 5.0-5.6^a
Compound: CN(CCOc1ccc(CC2SC(=O)NC2=O)cc1)c1ccccn1 (centres unmarked) [Rosiglitazone]

Compound: Cc1ccc(CN(Cc2ccc(-c3ccccc3S(=O)(=O)NC#N)cc2)C(=O)c2ccccc2Cl)cc1 [S0859]
inhibition of Na+-H+ exchange (NHE) (Na+-H+ exchange (NHE)): does not inhibit

IC50 (H+K+ATPase): 200 µM
Compound: Cc1nc2c(OCc3ccccc3)nccn2c1N [SCH 32651]

IC50 (H+K+ATPase): 2.5 µM
Compound: Cc1nc2c(OCc3ccccc3)cccn2c1CC#N [SCH-28080]

Compound: C=C1C[C@@]23CC[C@H]4[C@@](C)(CCC[C@@]4(C)C(=O)O[C@@H]4O[C@H](CO)[C@@H](O)[C@H](O)[C@H]4O)[C@@H]2CC[C@]1(O[C@@H]1O[C@H](CO)[C@@H](O)[C@H](O)[C@H]1O[C@@H]1O[C@H](CO)[C@@H](O)[C@H](O)[C@H]1O)C3 [Stevioside]
interaction with organic anion transporters (OAT) [3]: no interaction
genotoxic effects (cultured mammalian cells): genotoxic effects

Compound: O=C(Nc1nncs1)c1cccnc1 [TGN-020]
volume of brain edema associated with ischemic injury (Aquaporin 4 (AQP4)): significantly reduced

FFA1 pEC50 (FFA1 [4]): 7.5^b
Compound: Cc1ccccc1C#Cc1ccc(CCC(=O)O)cc1 [TUG424]
activity at FFA2 (FFA2): No activity at FFA2 and FFA3 reported (TUG424).
activity at FFA3 (FFA3): No activity at FFA2 and FFA3 reported (TUG424).

selectivity for KCC2 over NKCCI (KCC2): selective
Compound: Cc1csc(NC(=O)CSc2ccc(-c3ccccc3)nn2)n1 [VU024055 1]

peripheral sensory axonopathy [5]: causes peripheral sensory axonopathy
Compound: N=C(N)NC(=O)c1cnn(-c2cccc3ncccc23)c1C1CC1 [Zoniporide]
swelling of human platelets (human platelets): inhibits
cardiac contractile dysfunction [6]: attenuates

Compound: NGF: nerve growth factor injected into the stellate ganglion of dogs
QTc (stellate ganglion): shortened
QTc interval (stellate ganglion): prolonged
SCD (stellate ganglion): did not cause SCD
risk of SCD (stellate ganglion): 50%
